30 molecules from patent publication US20260053146A1 (priority 2024, published 2026) can be followed below.

In brackets after ≈: the same amount, converted by molar mass. Where only a bound is given, the exact number is not on record here.

The nature of one series: physchem. The following applies: pH 5.6.
The next series has as its system CLas. Type of series: in vivo, Candidatus Liberibacter asiaticus. The following applies: CLas-infected citron leaves, petioles soaked with 200 ng in buffer; D. citri nymphs 21 days; versus buffer control.

The molecule “Ac-INWKKIFEKVKNLV-NH2 [PDD-A, INWKKIFEKVKNLV]” displayed an MIC with L. crescens BT-1 of 200 µg/mL. For the same molecule, the solubility in “physchem” is above 20 mg/mL.

The molecule “Ac-INWKKIASIGKEVLKAL-NH2 [PMM, INWKKIASIGKEVLKAL]” yielded a minimum inhibitory concentration (MIC) against L. crescens BT-1 of 200 µg/mL. For the same molecule, the solubility in the series “physchem” was above 20 mg/mL. “Ac-INWLKLGKMVIDAL-NH2 [Polybia-MPII, INWLKLGKMVIDAL]” showed a minimal inhibitory concentration (MIC) with L. crescens BT-1 of 400 µg/mL. In addition, in the series “physchem”, the solubility is above 20 mg/mL. Taken in the same sequence, the figures for “Ac-INMKASAAVAKKLL-NH2 [MP-VB1t, INMKASAAVAKKLL]” were above 1000 µg/mL and above 20 mg/mL. Taken in the same sequence, the figures for `CC[C@H](C)[C@H](NC(=O)[C@H](CC(=O)O)NC(=O)[C@H](Cc1ccccc1)NC(C)=O)C(=O)N[C@@H](CCSC)C(=O)NCC(=O)N[C@@H](CC(C)C)C(=O)N[C@H](C(=O)N[C@@H](CCCCN)C(=O)N[C@@H](CCCCN)C(=O)N[C@H](C(=O)N[C@@H](C)C(=O)NCC(=O)N[C@@H](C)C(=O)N[C@@H](CC(C)C)C(N)=O)C(C)C)[C@@H](C)CC` [EMP-ER, FDIMGLIKKVAGAL] were 200 µg/mL (≈ 0.132 mM) and at least 10 mg/mL.

“Ac-INWKKIKSLIKAAMS-NH2 [Mastoparan-V2, INWKKIKSLIKAAMS]”: the minimal inhibitory concentration (MIC) with L. crescens BT-1 is 200 µg/mL. In the series “physchem”, this molecule gave a solubility above 20 mg/mL. In the same order, the values of “Ac-INLLKIAKGIIKSL-NH2 [EMP-AF, INLLKIAKGIIKSL]” are 1000 µg/mL and above 20 mg/mL.

As to “Ac-LKLMGIVKKVLGAL-NH2 [EMP-EM1, LKLMGIVKKVLGAL]”, the MIC against L. crescens BT-1 amounted to 200 µg/mL. In the series “physchem”, this molecule returned a solubility of at least 10 mg/mL. Taken in the same sequence, the figures for “Ac-IDWLKLGKMVMDVL-NH2 [Venom_protein_13b, IDWLKLGKMVMDVL]” were 200 µg/mL and below 5 mg/mL.

Regarding “Ac-INLKAIAAMAKKLL-NH2 [Mastoparan-like_12d, INLKAIAAMAKKLL]”, in the series on L. crescens BT-1, the MIC was 400 µg/mL. The molecule also displayed a solubility in the series “physchem” above 20 mg/mL. In the case of “Ac-INWLKLGKKMMSAL-NH2 [MP, INWLKLGKKMMSAL]”, the MIC in the series with L. crescens BT-1 turned out to be 1000 µg/mL. In “physchem”, this molecule had a solubility above 20 mg/mL.

Consider “Ac-NLKAIAALAKKLL-NH2 [Mastoparan-VT2, NLKAIAALAKKLL]”, for which the MIC against L. crescens BT-1 was 400 µg/mL. This molecule also yielded a solubility in “physchem” above 20 mg/mL.

For “Ac-INLKAIAPLAKKLL-NH2 [Mastoparan-VT4, INLKAIAPLAKKLL]”, the solubility in “physchem” was above 20 mg/mL. As for “Ac-INWKKIKSIIKAAMN-NH2 [Mastoparan-V1, INWKKIKSIIKAAMN]”, the MIC in the series on L. crescens BT-1 came to 400 µg/mL. Besides, the solubility in “physchem” was above 20 mg/mL. Taken in the same sequence, the figures for “Ac-INWKKMAATALKMI-NH2 [Parapolybia-MP, INWKKMAATALKMI]” were above 1000 µg/mL and above 20 mg/mL. In the same order, the values of “Ac-VIVKAIATLSKKLL-NH2 [Mastoparan-VT5, VIVKAIATLSKKLL]” are above 1000 µg/mL and above 20 mg/mL. Regarding polymyxin B [PMB, reference compound], in the series on CLas, the “ability of bacteria in treated leaves to infect psyllid nymphs (CLas abundance in adult psyllids, FIG. 4)” value is listed as “less able to infect the psyllid nymphs”. Take “Ac-INWKGIAAMKKLL-NH2 [Mastoparan-like_12b, INWKGIAAMKKLL]”: the MIC in the series on L. crescens BT-1 was above 1000 µg/mL. Also, in “physchem”, the solubility was above 20 mg/mL.

As to “Ac-LNFKALAALAKKIL-NH2 [Mastoparan-R2, LNFKALAALAKKIL]”, the minimum inhibitory concentration (MIC) against L. crescens BT-1 is 200 µg/mL. This molecule yielded a solubility in the series “physchem” above 20 mg/mL. Taken in the same sequence, the figures for “Ac-FDVMGIIKKIAGAL-NH2 [EMP-EF, FDVMGIIKKIAGAL]” were 200 µg/mL and below 5 mg/mL. On to “Ac-INWKGIAAMAKKLL-NH2 [Mastoparan-X, INWKGIAAMAKKLL]”, for which the minimal inhibitory concentration (MIC) with L. crescens BT-1 was determined as 1000 µg/mL. The molecule further yielded a solubility in the series “physchem” above 20 mg/mL.

In the case of “Ac-INLKAIAAFAKKLL-NH2 [Mastoparan-T, INLKAIAAFAKKLL]”, the minimum inhibitory concentration (MIC) in the series with L. crescens BT-1 is 200 µg/mL. Also, in “physchem”, the solubility is above 20 mg/mL. In the same order, the values of Ac-INLKAIAALVKKLL-NH2 [Mastoparan-VT6] are 100 µg/mL and above 20 mg/mL.

Consider “Ac-INWLKLGKKILGAL-NH2 [PDD-B, INWLKLGKKILGAL]”, for which the minimal inhibitory concentration (MIC) against L. crescens BT-1 turned out to be 1000 µg/mL. Also, the solubility in the series “physchem” was above 20 mg/mL.

In the series with L. crescens BT-1, “Ac-INWLKLGKQILGAL-NH2 [Mastoparan-R3, INWLKLGKQILGAL]” displayed a minimum inhibitory concentration (MIC) of 400 µg/mL. The molecule further had a solubility in “physchem” above 20 mg/mL. Taken in the same sequence, the figures for “Ac-INLKAITALAKKLL-NH2 [Mastoparan-VT3, INLKAITALAKKLL]” were 400 µg/mL and at least 10 mg/mL. In the same order, the values of “Ac-GRILSFIKGLAEHL-NH2 [EMP-OD, GRILSFIKGLAEHL]” are 400 µg/mL and above 20 mg/mL. Taken in the same sequence, the figures for “Ac-INWLKLGKKILGAI-NH2 [Mastoparan-R1, INWLKLGKKILGAI]” were 200 µg/mL and above 20 mg/mL. Regarding “Ac-INLKAIAALARNY-NH2 [Mastoparan-VT7, INLKAIAALARNY]”, in the series on L. crescens BT-1, the MIC is above 200 µg/mL. The solubility in “physchem” was below 5 mg/mL.

Molecule “Ac-LKLLGIVKKVLGAI-NH2 [EMP-EM2, LKLLGIVKKVLGAI]” came in with a minimal inhibitory concentration (MIC) against L. crescens BT-1 of 200 µg/mL. Moreover, the solubility in “physchem” was below 5 mg/mL.

Usually MIC stands for the lowest concentration found to suppress growth. Usually solubility stands for the concentration that dissolves in the medium under given conditions.
